Key:
[1] = tested on: Plasmodium falciparum; experiment: Antiplasmodial activity against Plasmodium falciparum 3D7 infected in human erythrocytes after 72 hrs by SYBR green 1-based fluorimetric assay; assay type: functional, organism-based; settings: 3D7, 72 h
[2] = Inhibition of Plasmodium falciparum choline kinase using [methyl-14C]choline as substrate assessed as reduction in rate of incorporation of 14C from [methyl-14C]choline into phosphocholine preincubated for 5 mins followed by substrate addition measured after 10 mins by liquid scintillation counter
[3] = Inhibition of Plasmodium falciparum choline kinase using [1-14C]ethanolamine as substrate assessed as reduction in rate of incorporation of […] preincubated for 5 mins followed by substrate addition measured after 10 mins by liquid scintillation counter
[4] = molecular target: T1, Choline kinase (Plasmodium falciparum (isolate 3D7), UniProt Q8IM71); experiment: Inhibition of Plasmodium falciparum 3D7 choline kinase expressed in Escherichia coli BL21(DE3) assessed as reduction in phosphocholine formation
T1 sequence (Q8IM71 whole entry): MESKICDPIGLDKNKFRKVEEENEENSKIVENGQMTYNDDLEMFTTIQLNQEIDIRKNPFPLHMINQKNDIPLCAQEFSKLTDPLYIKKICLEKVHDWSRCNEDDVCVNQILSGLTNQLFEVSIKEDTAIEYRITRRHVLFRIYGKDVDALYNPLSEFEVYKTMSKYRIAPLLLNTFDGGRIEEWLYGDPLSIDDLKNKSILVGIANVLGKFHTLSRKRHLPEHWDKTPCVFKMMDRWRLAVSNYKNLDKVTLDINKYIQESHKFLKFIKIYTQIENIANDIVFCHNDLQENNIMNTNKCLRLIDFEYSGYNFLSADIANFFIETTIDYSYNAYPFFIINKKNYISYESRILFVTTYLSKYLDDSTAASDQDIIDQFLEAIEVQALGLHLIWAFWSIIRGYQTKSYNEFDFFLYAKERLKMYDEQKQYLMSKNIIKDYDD

[5] = tested on: Plasmodium falciparum; experiment: Antiplasmodial activity against Plasmodium falciparum Dd2 infected in human erythrocytes after 48 hrs by picogreen-microfluorimetric assay; assay type: functional, organism-based; settings: Dd2, 48 h
[6] = molecular target: Choline kinase alpha (Homo sapiens, UniProt P35790); experiment: Inhibition of human choline kinase alpha1 using [methyl-14C]choline as substrate assessed as reduction in rate of incorporation of 14C from [methyl-14C]choline into phosphocholine preincubated for 5 mins followed by substrate addition measured after 10 mins by scintillation counting
Sequence of Choline kinase alpha (P35790 whole entry): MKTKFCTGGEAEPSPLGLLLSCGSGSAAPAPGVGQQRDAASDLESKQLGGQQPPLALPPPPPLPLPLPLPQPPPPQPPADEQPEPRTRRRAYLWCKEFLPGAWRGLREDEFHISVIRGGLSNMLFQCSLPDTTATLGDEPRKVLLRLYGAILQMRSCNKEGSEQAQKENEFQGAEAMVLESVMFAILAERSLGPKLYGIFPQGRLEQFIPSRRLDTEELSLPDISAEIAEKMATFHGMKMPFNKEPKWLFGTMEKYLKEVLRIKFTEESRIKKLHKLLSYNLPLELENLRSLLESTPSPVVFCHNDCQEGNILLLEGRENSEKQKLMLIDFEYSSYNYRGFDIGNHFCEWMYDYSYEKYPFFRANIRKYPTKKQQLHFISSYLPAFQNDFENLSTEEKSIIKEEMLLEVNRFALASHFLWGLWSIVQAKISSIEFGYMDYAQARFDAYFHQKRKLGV

SMILES	IC50 [1] [nM]	IC50 [2] [µM]	IC50 ([3]; read-out: IC50) [µM]	IC50 [4] [µM]	IC50 [5] [nM]	IC50 [3]	IC50 [6] [nM]
CN(c1ccccc1)c1cc[n+](Cc2ccc(OCCOc3ccc(C[n+]4ccc(N(C)c5ccccc5)c5ccccc54)cc3)cc2)c2ccccc12	162	–	–	–	–	–	–
CN(C)c1cc[n+](Cc2ccc(-c3ccc(C[n+]4ccc(N5CCCC5)cc4)cc3)cc2)cc1	–	276	12	–	–	–	–
CN(c1ccc(Cl)cc1)c1cc[n+](Cc2ccc(-c3ccc(C[n+]4ccc(N(C)c5ccc(Cl)cc5)c5ccccc54)cc3)cc2)c2ccccc12 [RSM-932A]	26.5	1.75	–	1.75	26.5	–	–
C[N+]1(C)CCOC(O)(c2ccc(-c3ccc(C4(O)C[N+](C)(C)CCO4)cc3)cc2)C1 (stereo not given) [HEMICHOLINIUM-3]	> 50000	250	–	250	> 50000	–	–
CN(C)c1cc[n+](Cc2ccc(CCCCc3ccc(C[n+]4ccc(N5CCCC5)cc4)cc3)cc2)cc1	3	103	6	–	–	–	–
CN(c1ccc(Cl)cc1)c1cc[n+](Cc2ccc(OCCOc3ccc(C[n+]4ccc(N(C)c5ccc(Cl)cc5)c5ccccc54)cc3)cc2)c2ccccc12	149	2.52	–	–	–	–	–
[Br-].[Br-].c1cc(OCCOc2ccc(C[n+]3ccc(N4CCCC4)cc3)cc2)ccc1C[n+]1ccc(N2CCCC2)cc1	16	50	–	–	–	Not Active	–
c1cc(OCCOc2ccc(C[N+]34CCC(CC3)CC4)cc2)ccc1C[N+]12CCC(CC1)CC2	177	–	–	–	–	–	–
c1ccc2c(c1)c(N1CCCCCC1)cc[n+]2Cc1ccc(OCCOc2ccc(C[n+]3ccc(N4CCCCCC4)c4ccccc43)cc2)cc1	142	2.36	> 15	–	–	–	–
CN(c1ccc(Cl)cc1)c1cc[n+](Cc2ccc(OCCOc3ccc(C[n+]4ccc(N(C)c5ccc(Cl)cc5)c5ccc(Cl)cc54)cc3)cc2)c2cc(Cl)ccc12	369	6.47	–	–	–	–	–
Clc1ccc2c(N3CCCCCC3)cc[n+](Cc3ccc(OCCOc4ccc(C[n+]5ccc(N6CCCCCC6)c6ccc(Cl)cc65)cc4)cc3)c2c1	35	10.9	> 50	–	–	–	–
CN(c1ccccc1)c1cc[n+](Cc2ccc(OCCOc3ccc(C[n+]4ccc(N(C)c5ccccc5)c5ccc(Cl)cc54)cc3)cc2)c2cc(Cl)ccc12	177	–	–	–	–	–	–
CN(C)c1cc[n+](Cc2ccc(CCCCc3ccc(C[n+]4ccc(N(C)C)cc4)cc3)cc2)cc1	3.5	106	–	106	3.5	–	780
Clc1ccc2c(N3CCCC3)cc[n+](Cc3ccc(OCCOc4ccc(C[n+]5ccc(N6CCCC6)c6ccc(Cl)cc65)cc4)cc3)c2c1	59	14.1	–	–	–	–	–
CN(C)c1cc[n+](Cc2ccc(OCCOc3ccc(C[n+]4ccc(N(C)C)cc4)cc3)cc2)cc1.[Br-].[Br-]	16	≥ 100	–	–	–	Not Active	–
OC1C[N+]2(Cc3ccc(OCCOc4ccc(C[N+]56CCC(CC5)C(O)C6)cc4)cc3)CCC1CC2 (stereo not given)	1690	–	–	–	–	–	–
